Article PMC7767381, “Exploring the Anti-Cancer Mechanism of Novel 3,4′-Substituted Diaryl Guanidinium Derivatives” (Pharmaceuticals, 2020)

These molecules were tested on HCT116 cells (assay: alamarBlue cell viability assay, HCT116). Settings: Homo sapiens, HCT-116, 72 h, KRas mutant, read-out: HCT116 IC50 ± SEM.
Format: cell-based
Source text: Cell viability and proliferation assays were used to evaluate the in vitro cytotoxicity of all synthesised compounds in a variety of different cancer cell lines using the alamarBlue® viability assay and the results are presented in Table 1 and Table 2. The sensitivity of cancer cells to drugs can often be compromised by PIK3CA, Ras and BRAF mutations. To determine whether such mutations are critical to the efficacy of our new compounds we tested them in a range of cancerous cell lines expressing different mutations. Firstly, we used the HL-60 (human promyelocytic leukaemia, NRas mutated) cell line for general cytotoxicity screening of all compounds. […] Lastly, toxicity against MCF-10A, which is a non-tumorigenic epithelial cell line, was also assessed for one of the most promising compounds (4). The graphs representing the viability results with the HL-60, MCF-7, HeLa, HCT-116, and HKH-2 cancer cell lines for compound 1 and derivatives 2, 3, and 4 are shown in Figures S7–S10 (ESI).
Cells were counted and seeded in 96-well plates at a density of 2 × 10^5 cells/mL for HL-60, 2.5 × 10^4 cells/mL for MCF-7, MCF10A and HeLa, 1 × 10^5 cells/mL for HCT116 and HKH-2, all of them in their respective media. The 96-well plates were then treated with a 1:100 dilution of stock concentrations of drugs or EtOH (1% v/v)/DMSO (0.1% v/v) as vehicle control in triplicate. Three blank wells containing 200 µL RPMI with no cells were also set-up as blanks. After a 72 h incubation, 20 µL of alamarBlue was added to each well. The plates were incubated in darkness at 37 °C for 4–5 h using a Molecular Devices microplate reader, the fluorescence (F) was then read at an excitation wavelength of 544 nm and an emission wavelength of 590 nm. Cell viability was then determined by subtracting the mean blank fluorescence (Fb) from the treated sample fluorescence (Fs) and expressing this as a percentage of the fluorescence of the blanked vehicle control (Fc). […] The results were then plotted as a nonlinear regression, sigmoidal dose-response curves on Prism, from which the IC50 value for each drug was determined.
The MCF-7 (human breast tumour) cell line was obtained from Prof. Mary Meegan, School of Pharmacy, TCD. It was maintained in Roswell Park Memorial Institute (RPMI) 1640 medium with stable glutamate (GlutaMax I) supplemented with 10% (v/v) fetal bovine serum (FBS), 1% (v/v) penicillin/ streptomycin (pen-strep) and 2 mM L-glutamine.
The HeLa (human epitheloid cervix carcinoma) cell line was obtained from Prof. Thorfinnur Gunnlaugsson, School of Chemistry TCD. It was maintainedin Dulbecco's Modified Eagle's Medium (DMEM) supplemented with 10% (v/v) fetal bovine serum (FBS) and 1%(v/v) penicillin/ streptomycin (pen-strep).
The HCT116and HKH-2 (human colon cancer cells) cell lines were obtained from Prof. James Murray, School of Biochemistry and Immunology TCD. They were maintainedin Dulbecco's Modified Eagle's Medium (DMEM) supplemented with 10% (v/v) fetal bovine serum (FBS), 1% (v/v) penicillin/ streptomycin (pen-strep), 1% (v/v) sodium pyruvate (NaPyr), 1% (v/v) L-glutamine (L-Glu) and, only for HKH-2, 0.6 mg/mL geneticine (G418).
MCF-10A (human breast epithelial) cell line was obtained from Prof. Mary Meegan, School of Pharmacy, TCD. […]
Cells were counted and seeded in 96 well plates at a density of 2 × 10^5 cells/mL for HL-60, 2.5× 10^4 cells/mL for MCF-7, MCF10A and HeLa, 1 × 10^5 cells/mL for HCT116 and HKH-2, all of them in their respective media. […]

Point of comparison: `Cl.N=C(N)Nc1ccc(Oc2cccc(Nc3ccc(Cl)c(C(F)(F)F)c3)c2)cn1` [Compound 4, 1-(5-(3-((4-Chloro-3-(trifluoromethyl)phenyl)amino)phenoxy)pyridin-2-yl)guanidine hydrochloride], IC50 4.59 ± 0.4 µM. Against it:
- Cl.Cl.N=C(N)Nc1ccc(Oc2cccc(NC(=N)Nc3ccc(Cl)c(C(F)(F)F)c3)c2)cn1 [Compound 2, 1-(4-Chloro-3-(trifluoromethyl)phenyl)-3-(3-((6-guanidinopyridin-3-yl)oxy)phenyl) guanidine dihydrochloride] — 1.6-fold higher, 7.29 ± 0.53 µM
- Cl.N=C(N)Nc1ccc(Oc2cccc(Nc3ccc(Cl)c(C(F)(F)F)c3)c2)cc1 [Compound 3, 1-(4-(3-((4-Chloro-3-(trifluoromethyl)phenyl)amino)phenoxy)phenyl)guanidine hydrochloride] — 3.5-fold higher, 15.9 ± 2.73 µM
